# Test results: US20240360114A1 (SIRONAX LTD., priority 2021, published 2024)
# Test system: HT-1080 cells
# Experiment: HT-1080 cell viability assay (ferroptosis induced by RSL3, Cell Titer-Glo)
# Assay type: cell-based
# Settings: Homo sapiens, HT-1080, 20 h, ferroptosis inducer RSL3, 20 hours, ferroptosis inhibitory activity, Table 2
# Summary of the method: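 EC50 fitted by sigmoidal dose-response regression on luminescent viability data normalized to untreated cells. Compounds ran as a 10-point, 3-fold series from 1.1 μM alongside RSL3 for 20 hours, after overnight seeding.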
row,SMILES,EC50
1,"Cc1nc(N2CC(C)(C)OC(C)(C)C2)ccc1NC1CC2(CC(N)C2)C1 (centres unmarked) [Compound 515, N2-(2-methyl-6-(2,2,6,6-tetramethylmorpholino)pyridin-3-yl)spiro[3.3]heptane-2,6-diamine]",0.1 to 100 nM
2,"NC1CCC(Nc2ccc(N3CCC(C(F)(F)F)CC3)cc2)CC1 (centres unmarked) [Compound 40, N1-(4-(4-(trifluoromethyl)piperidin-1-yl)phenyl)cyclohexane-1,4-diamine]",0.1 to 100 nM
3,"CC(C)C1CCN(c2cnc(NC3CCC(N)CC3)cn2)CC1 (centres unmarked) [Compound 399, N1-(5-(4-isopropylpiperidin-1-yl)pyrazin-2-yl)cyclohexane-1,4-diamine]",0.1 to 100 nM
4,"CCCCCCc1cc(NC2CCC(N)CC2)ccc1C(C)(C)C (centres unmarked) [Compound 253A, N1-(4-(tert-butyl)-3-hexylphenyl)cyclohexane-1,4-diamine]",0.1 to 100 nM
5,"NC1CCC(Nc2ccc(C3CCOCC3)cc2)CC1 (centres unmarked) [Compound 170, 1-N-(4-(tetrahydro-2H-pyran-+-yl)phenyl)cyclohexane-1,4-diamine]",1000 to 10000 nM
6,"N[C@H]1CC[C@H](CNc2ccc3c(c2)CCCC3)CC1 [Compound 310, N-(((1r,4r)-4-aminocyclohexyl)methyl)-5,6,7,8-tetrahydronaphthalen-2-amine]",0.1 to 100 nM
7,"NC1CCC(Nc2ccc(C3CCCC3)cc2)CC1 (single isomer, unassigned) [Compound 139A, N1-(4-cyclopentylphenyl)cyclohexane-1,4-diamine]",0.1 to 100 nM
8,"NC1CCC(Nc2cccc(N3CCC(C(F)(F)F)CC3)c2)CC1 (centres unmarked) [Compound 384, N1-(3-(4-(trifluoromethyl)piperidin-1-yl)phenyl)cyclohexane-1,4-diamine]",100 to 1000 nM
9,"CC(C)(C)c1ccc(NC2CCCNC2)cc1 (centres unmarked) [Compound 150, N-(4-(tert-butyl)phenyl)piperidin-3-amine]",100 to 1000 nM
10,"CCCCOc1ccc(NC2CCC(N)CC2)cc1 (single isomer, unassigned) [Compound 142A, N1-(4-butoxyphenyl)cyclohexane-1,4-diamine]",0.1 to 100 nM
11,"CN(C)CCOC1CCC(Nc2ccc(C(C)(C)C)cc2)CC1 (centres unmarked) [Compound 319A, 4-(tert-butyl)-N-(4-(2-(dimethylamino)ethoxy)cyclohexyl)aniline]",100 to 1000 nM
12,"Cc1cc(N2CCC(C(F)(F)F)CC2)c(F)cc1NC1CCC(C(N)=O)CC1 (centres unmarked) [Compound 435, 4-((5-fluoro-2-methyl-4-(4-(trifluoromethyl)piperidin-1-yl)phenyl)amino)cyclohexane-1-carboxamide]",0.1 to 100 nM
13,"CC(C)(C)c1ccc(NC2CCC(N)(C(=O)O)CC2)cc1 (centres unmarked) [Compound 189, 1-amino-4-((4-(tert-butyl)phenyl)amino)cyclohexane-1-carboxylic acid]",1000 to 10000 nM
14,"NCC1CCC(Nc2ccc(C3CCCCC3)cc2)CC1 (single isomer, unassigned) [Compound 82A, N-(4-(aminomethyl)cyclohexyl)-4-cyclohexylaniline]",0.1 to 100 nM
15,"CC[C@@H]1CN(c2ccc(NC[C@H]3CC[C@H](N)CC3)c(C)n2)C[C@@H](CC)O1 [Compound 548, N-(((1r,4R)-4-aminocyclohexyl)methyl)-6-((2R,6R)-2,6-diethylmorpholino)-2-methylpyridin-3-amine]",0.1 to 100 nM
16,"CC1(N)CCC(Nc2ccc3c(c2)CCC3)CC1 (centres unmarked) [Compound 99, N1-(2,3-dihydro-1H-inden-5-yl)-4-methylcyclohexane-1,4-diamine]",0.1 to 100 nM
17,"N[C@H]1CC[C@@H](CNc2ccc3c(c2)CCC3)CC1 [Compound 307, N-(((1s,4s)-4-aminocyclohexyl)methyl)-2,3-dihydro-1H-inden-5-amine]",0.1 to 100 nM
18,"CCCNc1ccc(N2CCC(C(F)(F)F)CC2)cc1 [Compound 14, N-propyl-4-(4-(trifluoromethyl)piperidin-1-yl)aniline]",0.1 to 100 nM
19,"CCNc1ccc(N2CCC(C(F)(F)F)CC2)cc1 [Compound 13, N-ethyl-4-(4-(trifluoromethyl)piperidin-1-yl)aniline]",0.1 to 100 nM
20,"CC(C)C1CCN(c2ncc(NC[C@H]3C[C@H](N)C3)cn2)CC1 [Compound 448, N-(((1r,3r)-3-aminocyclobutyl)methyl)-2-(4-isopropylpiperidin-1-yl)pyrimidin-5-amine]",0.1 to 100 nM

row,SMILES,EC50
1,"COC1(C(F)(F)F)CCN(c2ccc(NC[C@H]3CC[C@H](N)CC3)cc2)CC1 [Compound 459, N-(((1r,4r)-4-aminocyclohexyl)methyl)-4-(4-methoxy-4-(trifluoromethyl)piperidin-1-yl)aniline]",0.1 to 100 nM
2,"CC(C)(C)c1ccc(NC2CC(N)C2)cc1 (centres unmarked) [Compound 123, N1-(4-(tert-butyl)phenyl)cyclobutane-1,3-diamine]",100 to 1000 nM
3,"Cc1c(NC2CCC(N)CC2)ccc(N2CCC(C(F)(F)F)CC2)c1F (centres unmarked) [Compound 57, N1-(3-fluoro-2-methyl-4-(4-(trifluoromethyl)piperidin-1-yl)phenyl)cyclohexane-1,4-diamine]",0.1 to 100 nM
4,"CC1(C)CCC(c2ccc(NCCN3CCCC3)cc2)CC1 [Compound 101, 4-(4,4-dimethylcyclohexyl)-N-(2-(pyrrolidin-1-yl)ethyl)aniline]",0.1 to 100 nM
5,"CCC(C)(C)c1ccc(NC2CC(N)C2)cc1 (centres unmarked) [Compound 273, N1-(4-(tert-pentyl)phenyl)cyclobutane-1,3-diamine]",0.1 to 100 nM
6,"CN1CCC(Nc2ccc(C3CCC(C)(C)CC3)cc2)CC1=O (centres unmarked) [Compound 103, 4-((4-(4,4-dimethylcyclohexyl)phenyl)amino)-1-methylpiperidin-2-one]",100 to 1000 nM
7,"CC(C)C1CCN(c2ncc(NC34CC(N)(C3)C4)cn2)CC1 [Compound 434, N1-(2-(4-isopropylpiperidin-1-yl)pyrimidin-5-yl)bicyclo[1.1.1]pentane-1,3-diamine]",1000 to 10000 nM
8,"Cc1nc(N2CC(C)OC(C)(C)C2)ccc1NC1CC2(CC(N)C2)C1 (centres unmarked) [Compound 185, N2-(2-methyl-6-(2,2,6-trimethylmorpholino)pyridin-3-yl)spiro[3.3]heptane-2,6-diamine]",1000 to 10000 nM
9,"CNCC1CCC(Nc2ccc(C(C)(C)C)cc2)C1 (centres unmarked) [Compound 263, 4-(tert-butyl)-N-(3-((methylamino)methyl)cyclopentyl)aniline]",100 to 1000 nM
10,"CC(C)C1CCN(c2ncc(NC3CC4(CC(NCCF)C4)C3)cn2)CC1 (centres unmarked) [Compound 412, N2-(2-fluoroethyl)-N6-(2-(4-isopropylpiperidin-1-yl)pyrimidin-5-yl)spiro[3.3]heptane-2,6-diamine]",0.1 to 100 nM
11,"CC(C)(C)c1ccccc1NC1CCC(N)CC1 (centres unmarked) [Compound 126, N1-(2-(tert-butyl)phenyl)cyclohexane-1,4-diamine]",1000 to 10000 nM
12,"Cc1nc(N2C3CCC2COC3)ccc1NC1CC2(CC(N)C2)C1 (centres unmarked) [Compound 528, N2-(6-(3-oxa-8-azabicyclo[3.2.1]octan-8-yl)-2-methylpyridin-3-yl)spiro[3.3]heptane-2,6-diamine]",100 to 1000 nM
13,"CC1(C)CCC(c2ccc(NC(C)(C)CN3CCCC3)cc2)CC1 [Compound 203, 4-(4,4-dimethylcyclohexyl)-N-(2-methyl-1-(pyrrolidin-1-yl)propan-2-yl)aniline]",100 to 1000 nM
14,"N[C@@H]1CCC[C@H]1Nc1ccc(N2CCC(C(F)(F)F)CC2)cc1 [Compound 444, (1R,2R)-N1-(4-(4-(trifluoromethyl)piperidin-1-yl)phenyl)cyclopentane-1,2-diamine]",0.1 to 100 nM
15,"N[C@H]1CC[C@@H](CNc2ccc3c(c2)CCCC3)CC1 [Compound 309, N-(((1r,4r)-4-aminocyclohexyl)methyl)-5,6,7,8-tetrahydronaphthalen-2-amine]",0.1 to 100 nM
16,"CCC1CCN(c2ncc(NC3CCC(N)CC3)cn2)CC1 (centres unmarked) [Compound 43, N1-(2-(4-ethylpiperidin-1-yl)pyrimidin-5-yl)cyclohexane-1,4-diamine]",0.1 to 100 nM
17,"CC1CN(c2ccc(NC3CCCCC3N)cc2)CC(C)O1 (centres unmarked) [Compound 440, N1-(4-(2,6-dimethylmorpholino)phenyl)cyclohexane-1,2-diamine]",100 to 1000 nM
18,"Cc1cc(N2CCC(C(F)(F)F)CC2)ccc1NC1CCC(N)CC1 (centres unmarked) [Compound 69, N1-(2-methyl-4-(4-(trifluoromethyl)piperidin-1-yl)phenyl)cyclohexane-1,4-diamine]",0.1 to 100 nM
19,"NCCOc1cc(NC2CCC(N)CC2)ccc1N1CCC(C(F)(F)F)CC1 (centres unmarked) [Compound 41A, N1-(3-(2-aminoethoxy)-4-(4-(trifluoromethyl)piperidin-1-yl)phenyl)cyclohexane-1,4-diamine]",100 to 1000 nM

# Same assay, conditions: Homo sapiens, HT-1080, 20 h, ferroptosis inducer RSL3, 20 hours, ferroptosis inhibitory activity, Table 3
row,SMILES,EC50
1,"CCNc1ccc2cc(NC3CC4(CC(N)C4)C3)ccc2c1 (centres unmarked) [Compound 658, N2-(6-aminospiro[3.3]heptan-2-yl)-N^6-ethylnaphthalene-2,6-diamine]",0.1 to 100 nM
2,CCC1CN(c2ccc(NC3C4CC5CC3CC(C(N)=O)(C5)C4)c(C)n2)CCO1 (centres unmarked) [Compound 590],100 to 1000 nM
3,"Cc1nc(NC(C)(C)C)ccc1NC1CC2(CC(N)C2)C1 (centres unmarked) [Compound 596, N^5-(6-aminospiro [3.3]heptan-2-yl)-N^2-(tert-butyl)-6-methylpyridine-2,5-diamine]",0.1 to 100 nM

# Same assay, conditions: Homo sapiens, ferroptosis inducer RSL3, 20 hours, ferroptosis inhibitory activity, Table 2
row,SMILES,EC50
1,"CC(C)(C)c1ccc(NCCC2CCC(N)CC2)cc1 (centres unmarked) [Compound 336A, N-(2-(4-aminocyclohexyl)ethyl)-4-(tert-butyl)aniline]",0.1 to 100 nM
2,"CN1CCC(N2CCC(Nc3ccc(C4CCC(C)(C)CC4)cc3)CC2)CC1 [Compound 100, N-(4-(4,4-dimethylcyclohexyl)phenyl)-1′-methyl-[1,4′-bipiperidin]-4-amine]",100 to 1000 nM

# Same assay, conditions: ferroptosis inducer RSL3, 20 hours, ferroptosis inhibitory activity, Table 2
row,SMILES,EC50
1,"CC(C)(C)c1ccc(NCC2CC(N)C2)cc1 (single isomer, unassigned) [Compound 335A, N-((3-aminocyclobutyl)methyl)-4-(tert-butyl)aniline]",100 to 1000 nM
2,"NCC1CCC(Nc2ccccc2)CC1 (single isomer, unassigned) [Compound 92A, N-(4-(aminomethyl)cyclohexyl)aniline]",1000 to 10000 nM
3,"NC1CCC(Nc2ccc(C3CCCCC3)cc2)CC1 (centres unmarked) [Compound 133, N1-(4-cyclohexylphenyl)cyclohexane-1,4-diamine]",0.1 to 100 nM
